What was measured:
Format in all cases: in vivo
Triticum aestivum = assay: Test Example 4: effect on crop by application to foliage (diluvial soil, plastic box); settings: application to foliage, application herbicide amount 320 g/ha
Procedure, shortened: (§1)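 Seeds sown in sterilized diluvial soil, covered ~1.5 cm, grown 14 days in greenhouse at 25° C. to 30° C. Emulsion formulation diluted in water to set rate (g/ha) and sprayed onto stems and leaves. Effect scored visually 3 weeks later on 0–5 scale (5 = ≥90% herbicidal ratio, 0 = ≤5%).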

[1] = test system: Beta vulgaris ssp. vulgaris; assay: as above; settings: application to foliage, application herbicide amount 320 g/ha
Procedure, shortened: as §1

Brassica campestris L. = assay: as above; settings: application to foliage, application herbicide amount 320 g/ha
Procedure, shortened: as §1

[2] = test system: directly sowed Oryza sativa; assay: as above; settings: application to foliage, application herbicide amount 320 g/ha
Procedure, shortened: as §1

Zea mays = assay: as above; settings: application to foliage, application herbicide amount 320 g/ha
Procedure, shortened: as §1

Glycine max = assay: as above; settings: application to foliage, application herbicide amount 320 g/ha
Procedure, shortened: as §1

Abutilon theophrasti = assay: Test Example 4: herbicidal effect by application to foliage (diluvial soil, plastic box); settings: application to foliage, application herbicide amount 320 g/ha
Procedure, shortened: as §1

Galium spurium = assay: as above; settings: application to foliage, application herbicide amount 320 g/ha
Procedure, shortened: as §1

Veronica persica = assay: as above; settings: application to foliage, application herbicide amount 320 g/ha
Procedure, shortened: as §1

Stellaria media = assay: as above; settings: application to foliage, application herbicide amount 320 g/ha
Procedure, shortened: as §1

Lolium multiflorum Lam. = assay: as above; settings: application to foliage, application herbicide amount 320 g/ha
Procedure, shortened: as §1

[3] = test system: Echinochloa crus-galli var. crus-galli; assay: as above; settings: application to foliage, application herbicide amount 320 g/ha
Procedure, shortened: as §1

Alopecurus myosuroides = assay: as above; settings: application to foliage, application herbicide amount 320 g/ha
Procedure, shortened: as §1

Amaranthus retroflexus = assay: as above; settings: application to foliage, application herbicide amount 320 g/ha
Procedure, shortened: as §1

Setaria viridis = assay: as above; settings: application to foliage, application herbicide amount 320 g/ha
Procedure, shortened: as §1

Chenopodium album = assay: as above; settings: application to foliage, application herbicide amount 320 g/ha
Procedure, shortened: as §1

Apera spica-venti. = assay: as above; settings: application to foliage, application herbicide amount 320 g/ha
Procedure, shortened: as §1

Digitaria ciliaris = assay: as above; settings: application to foliage, application herbicide amount 320 g/ha
Procedure, shortened: as §1

Avena fatua = assay: as above; settings: application to foliage, application herbicide amount 320 g/ha
Procedure, shortened: as §1

Monochoria vaginalis = assay: Test Example 1: herbicidal activity, application before weed generation in submerged conditions; settings: Application herbicide amount 320 g/ha; Seventeenth Table
Procedure, shortened: (§2)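 Pre-emergence water-surface application under 4 cm flooding, same day as sowing, with rice transplanted at 2.5 leaf stage. Dose given as g/ha. Plants grown at 25° C. to 30° C. and rated three weeks later on a 0 (≤5%) to 5 (≥90%) herbicidal-ratio scale.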

Scirpus juncoides = assay: as above; settings: Application herbicide amount 320 g/ha; Seventeenth Table
Procedure, shortened: as §2

[4] = test system: Echinochloa oryzacola Vasing.; assay: as above; settings: Application herbicide amount 320 g/ha; Seventeenth Table
Procedure, shortened: as §2

Compound	e: effect on crop, Triticum aestivum (Triticum aestivum)	f: effect on crop, Beta vulgaris ssp. vulgaris [1]	g: effect on crop, Brassica campestris L. (Brassica campestris L.)	b: effect on crop, directly sowed Oryza sativa [2]	c: effect on crop, Zea mays (Zea mays)	d: effect on crop, Glycine max (Glycine max)	M: herbicidal effect on Abutilon theophrasti (Abutilon theophrasti)	Q: herbicidal effect on Galium spurium (Galium spurium)	R: herbicidal effect on Veronica persica (Veronica persica)	P: herbicidal effect on Stellaria media (Stellaria media)	K: herbicidal effect on Lolium multiflorum Lam. (Lolium multiflorum Lam.)	H: herbicidal effect on Echinochloa crus-galli var. crus-galli [3]	J: herbicidal effect on Alopecurus myosuroides (Alopecurus myosuroides)	N: herbicidal effect on Amaranthus retroflexus (Amaranthus retroflexus)	G: herbicidal effect on Setaria viridis (Setaria viridis)	O: herbicidal effect on Chenopodium album (Chenopodium album)	L: herbicidal effect on Apera spica-venti. (Apera spica-venti.)	F: herbicidal effect on Digitaria ciliaris (Digitaria ciliaris)	I: herbicidal effect on Avena fatua (Avena fatua)	C: Monochoria vaginalis (herbicidal effect grade) (Monochoria vaginalis)	other results
Cn1nnnc1NC(=O)c1ccc(C(F)(F)F)n2c(-c3ccccc3)nnc12 [2-007]	2 (Herbicidal ratio of 20% or more and less than 40%)	5 (Herbicidal ratio of 90% or more (almost completely withered))	4 (Herbicidal ratio of 70% or more and less than 90%)	2 (Herbicidal ratio of 20% or more and less than 40%)	0 (Herbicidal ratio of 5% or less (almost no effect))	3 (Herbicidal ratio of 40% or more and less than 70%)	5 (Herbicidal ratio of 90% or more (almost completely withered))	1 (Herbicidal ratio of 5% or more and less than 20%)	5 (Herbicidal ratio of 90% or more (almost completely withered))	5 (Herbicidal ratio of 90% or more (almost completely withered))	2 (Herbicidal ratio of 20% or more and less than 40%)	5 (Herbicidal ratio of 90% or more (almost completely withered))	2 (Herbicidal ratio of 20% or more and less than 40%)	5 (Herbicidal ratio of 90% or more (almost completely withered))	4 (Herbicidal ratio of 70% or more and less than 90%)	5 (Herbicidal ratio of 90% or more (almost completely withered))	4 (Herbicidal ratio of 70% or more and less than 90%)	5 (Herbicidal ratio of 90% or more (almost completely withered))	3 (Herbicidal ratio of 40% or more and less than 70%)	5 (Herbicidal ratio of 90% or more (almost completely withered))	B: Scirpus juncoides (herbicidal effect grade) (Scirpus juncoides): 5 (Herbicidal ratio of 90% or more (almost completely withered)); A: Echinochloa oryzicola Vasing. (herbicidal effect grade) [4]: 5 (Herbicidal ratio of 90% or more (almost completely withered))
Cn1nnnc1NC(=O)c1ccc(C(F)(F)F)n2c(Cl)nnc12 [2-008]	2 (Herbicidal ratio of 20% or more and less than 40%)	5 (Herbicidal ratio of 90% or more (almost completely withered))	3 (Herbicidal ratio of 40% or more and less than 70%)	1 (Herbicidal ratio of 5% or more and less than 20%)	0 (Herbicidal ratio of 5% or less (almost no effect))	3 (Herbicidal ratio of 40% or more and less than 70%)	5 (Herbicidal ratio of 90% or more (almost completely withered))	3 (Herbicidal ratio of 40% or more and less than 70%)	4 (Herbicidal ratio of 70% or more and less than 90%)	5 (Herbicidal ratio of 90% or more (almost completely withered))	2 (Herbicidal ratio of 20% or more and less than 40%)	4 (Herbicidal ratio of 70% or more and less than 90%)	1 (Herbicidal ratio of 5% or more and less than 20%)	5 (Herbicidal ratio of 90% or more (almost completely withered))	2 (Herbicidal ratio of 20% or more and less than 40%)	5 (Herbicidal ratio of 90% or more (almost completely withered))	1 (Herbicidal ratio of 5% or more and less than 20%)	3 (Herbicidal ratio of 40% or more and less than 70%)	3 (Herbicidal ratio of 40% or more and less than 70%)	4 (Herbicidal ratio of 70% or more and less than 90%)	B: Scirpus juncoides (herbicidal effect grade) (Scirpus juncoides): 4 (Herbicidal ratio of 70% or more and less than 90%); A: Echinochloa oryzicola Vasing. (herbicidal effect grade) [4]: 4 (Herbicidal ratio of 70% or more and less than 90%)
Cn1nnnc1NC(=O)c1ccc(C(F)(F)F)n2c(Br)nnc12 [2-009]	1 (Herbicidal ratio of 5% or more and less than 20%)	5 (Herbicidal ratio of 90% or more (almost completely withered))	4 (Herbicidal ratio of 70% or more and less than 90%)	2 (Herbicidal ratio of 20% or more and less than 40%)	1 (Herbicidal ratio of 5% or more and less than 20%)	4 (Herbicidal ratio of 70% or more and less than 90%)	5 (Herbicidal ratio of 90% or more (almost completely withered))	4 (Herbicidal ratio of 70% or more and less than 90%)	4 (Herbicidal ratio of 70% or more and less than 90%)	5 (Herbicidal ratio of 90% or more (almost completely withered))	2 (Herbicidal ratio of 20% or more and less than 40%)	5 (Herbicidal ratio of 90% or more (almost completely withered))	1 (Herbicidal ratio of 5% or more and less than 20%)	5 (Herbicidal ratio of 90% or more (almost completely withered))	3 (Herbicidal ratio of 40% or more and less than 70%)	5 (Herbicidal ratio of 90% or more (almost completely withered))	1 (Herbicidal ratio of 5% or more and less than 20%)	4 (Herbicidal ratio of 70% or more and less than 90%)	3 (Herbicidal ratio of 40% or more and less than 70%)	4 (Herbicidal ratio of 70% or more and less than 90%)	B: Scirpus juncoides (herbicidal effect grade) (Scirpus juncoides): 3 (Herbicidal ratio of 40% or more and less than 70%); A: Echinochloa oryzicola Vasing. (herbicidal effect grade) [4]: 3 (Herbicidal ratio of 40% or more and less than 70%)
COCc1nnc2c(C(=O)Nc3nnnn3C)ccc(C(F)(F)F)n12 [2-010, 3-(Methoxymethyl)-N-(1-methyl-1H-tetrazol-5-yl)-5-(trifluoromethyl)-[1,2,4]triazol o[4,3-a]pyridine-8-carboxamide]	3 (Herbicidal ratio of 40% or more and less than 70%)	5 (Herbicidal ratio of 90% or more (almost completely withered))	5 (Herbicidal ratio of 90% or more (almost completely withered))	5 (Herbicidal ratio of 90% or more (almost completely withered))	3 (Herbicidal ratio of 40% or more and less than 70%)	4 (Herbicidal ratio of 70% or more and less than 90%)	5 (Herbicidal ratio of 90% or more (almost completely withered))	4 (Herbicidal ratio of 70% or more and less than 90%)	5 (Herbicidal ratio of 90% or more (almost completely withered))	5 (Herbicidal ratio of 90% or more (almost completely withered))	3 (Herbicidal ratio of 40% or more and less than 70%)	5 (Herbicidal ratio of 90% or more (almost completely withered))	3 (Herbicidal ratio of 40% or more and less than 70%)	5 (Herbicidal ratio of 90% or more (almost completely withered))	3 (Herbicidal ratio of 40% or more and less than 70%)	5 (Herbicidal ratio of 90% or more (almost completely withered))	2 (Herbicidal ratio of 20% or more and less than 40%)	4 (Herbicidal ratio of 70% or more and less than 90%)	4 (Herbicidal ratio of 70% or more and less than 90%)	4 (Herbicidal ratio of 70% or more and less than 90%)	B: Scirpus juncoides (herbicidal effect grade) (Scirpus juncoides): 5 (Herbicidal ratio of 90% or more (almost completely withered)); A: Echinochloa oryzicola Vasing. (herbicidal effect grade) [4]: 5 (Herbicidal ratio of 90% or more (almost completely withered))
